Test results taken from ChEMBL document CHEMBL5724709, “EUbOPEN Chemogenomics Library - IncuCyte” (2024).
Square brackets hold non-standard residues; d marks the D form. Peptide text beside a SMILES is read from it. * marks the point of attachment. Cbz = O=C(OCc1ccccc1)*

What was measured:
Assay type in all cases: toxicity, cell-based
HEK-293T = experiment: Incucyte cell viability with HEK293T; conditions: human, 24 h, 10 µM, compound concentration 10 uM
Fibroblast = experiment: Incucyte cell viability with human fibroblast; conditions: 24 h, 10 µM, compound concentration 10 uM
U2OS = experiment: Incucyte cell viability with U2OS; conditions: human, 24 h, 10 µM, compound concentration 10 uM
Also: unitless GR value; below 1 slowed growth and below 0 cell loss.

SMILES | Growth Rate (HEK-293T; replicate number 1) | Growth Rate (HEK-293T; replicate number 2) | Growth Rate (Fibroblast; replicate number 1) | Growth Rate (Fibroblast; replicate number 2) | Growth Rate (U2OS; replicate number 1) | Growth Rate (U2OS; replicate number 2)
O=C(NO)c1ccc(CN2CCCc3cc(Cl)ccc32)cc1 | 0.69 | 0.85 | 0.78 | -0.22 | 0 | 0.79
O=C(O)/C(S)=C/c1c[nH]c2ccc(F)cc12 | 0.73 | 0.83 | 0.7 | 1 | 0.49 | 1
C[C@H]1CCCN1Cc1nc2cc(NC(=O)c3ccc4c(cnn4C)c3)ccc2[nH]1 | 0.37 | 0.49 | 1 | 0.78 | 0.16 | 0.68
CC(=O)Nc1ccc(-c2cc(-c3ccccc3)nc3cc(C(=O)NCCCn4ccnc4)nn23)cc1 | 0.47 | 0.63 | 0.41 | 1 | 1 | 0.62
CCCCCCCCCCCCCCCCNNC(=O)c1cccs1 | 0.8 | 1 | 0.8 | 0.19 | 0.83 | 1
CCn1c(=O)c(C)cn(Cc2nnc(-c3ccc(F)c(O)c3F)s2)c1=O | 1 | 0.97 | 0.03 | 1 | 1 | 0.92
CC(C)[C@@H]1C(=O)N(S(C)(=O)=O)[C@@H]2CCN(C(=O)/C=C/CN3CCCCC3)[C@H]21.Cl | 0.79 | 0.98 | 0.66 | 1 | 1 | 0.76
COc1cc(C)[nH]c(=O)c1CNC(=O)c1c(C)n([C@H](C)C2CCN(CC(F)(F)F)CC2)c2ccccc12 [CPI-1205] | 0.61 | 0.95 | 0.99 | 0.13 | 0.59 | 0.83
Cc1ccc(N2C(=O)/C(=C/C=C/c3ccco3)C(=O)NC2=S)cc1Cl | 0.94 | 1 | 0.45 | 1 | 1 | –
NC(=O)[C@H]1CCCCc2c1[nH]c1ccc(Cl)cc21 | 0.84 | 1 | 1 | – | 0.17 | 1
COc1cc(C(C)C)c2c(c1)S(=O)(=O)N(COc1cc(=O)n3cccc(OCCN4CCCCC4)c3n1)C2=O | -0.22 | -0.01 | -0.1 | -0.7 | 0.9 | 1
Cc1cc(-c2ccc3nc(C4CCOCC4)n(CCOC(F)(F)F)c3c2)cn(C)c1=O | 0.62 | 0.67 | 0.36 | -0.06 | -0.23 | 0.68
OC1CN=C2c3ccn([C@@H]4O[C@H]([C@H](O)c5ccc(Cl)cc5)[C@@H](O)[C@H]4O)c3N=CN21 (some centres not stated) | 1 | – | 1 | -0.38 | 1 | 0.79
CNC(=O)c1ccc(-c2cc3cccc(-c4nn(C5CCOCC5)c5c4CN(C(C)=O)CC5)c3cn2)cn1 | 0.61 | 0.57 | 1 | – | 0.12 | 0.95
CCCNC(=O)[C@H]1O[C@@H]1C(=O)N[C@H](C(=O)N1CCC[C@H]1C(=O)O)[C@@H](C)CC | 0.63 | 0.84 | 0.65 | 1 | 1 | –
CC(=O)Nc1ccc(OC[C@](C)(O)C(=O)Nc2ccc([N+](=O)[O-])c(C(F)(F)F)c2)cc1 | 0.72 | 0.87 | 0.07 | 1 | 1 | 0.76
CCc1ccccc1NC(=O)CSC(=O)NNC(=O)[C@H](Cc1c[nH]c2ccccc12)NC(=O)OC(C)(C)C | 0.24 | 0.54 | 1 | – | 1 | –
Nc1cc(F)ccc1NC(=O)c1ccc(CNC(=O)/C=C/c2cccnc2)cc1 [TUCIDINOSTAT] | 1 | – | 1 | – | -0.5 | 0.82
CNC(=O)c1cnc(N2CCC[C@H](N)C2)nc1Nc1cc(C(C)C)nc(C(C)C)c1 | -0.35 | -0.02 | 0.72 | 0.44 | -0.44 | 0.05

SMILES | Growth Rate (HEK-293T; replicate number 1) | Growth Rate (HEK-293T; replicate number 2) | Growth Rate (Fibroblast; replicate number 1) | Growth Rate (Fibroblast; replicate number 2) | Growth Rate (U2OS; replicate number 1) | Growth Rate (U2OS; replicate number 2)
Cc1cc(OCc2nnc(SC3CCCC3)n2-c2cccnc2)ccc1-c1ccc(S(C)(=O)=O)cc1 | -0.22 | – | -0.37 | -0.82 | -0.5 | -0.4
CN1CCN(c2cc(C(=O)Nc3ncc(SCc4cccc(C(F)(F)F)c4)s3)ccn2)CC1 | 0.24 | 0.59 | 0.19 | 1 | 0.31 | 0.48
COC(=O)[C@@H]1CC2=CC(=O)CC[C@]2(C)[C@@]23O[C@@H]2C[C@@]2(C)[C@@H](CC[C@@]24CCC(=O)O4)[C@H]13 [EPLERENONE] | 0.61 | 0.95 | 0.25 | 1 | 1 | –
Cc1cc(/N=N/c2ccc3c(c2)CCC(=O)N3)c(N)cc1O | 0.63 | 0.88 | 1 | – | 0.36 | 1
Cc1nc(-c2cnc(NC(C)C)n(C)c2=O)ccc1Oc1ccnc(-c2cnn(C)c2)c1 [VIMSELTINIB] | 0.39 | 0.02 | 0.29 | -0.35 | 0.42 | 0.46
Br.N#Cc1ccc(-c2csc(NN=C3CCCC3)n2)cc1 | -0.06 | 0.21 | 0.31 | 0.62 | 0.63 | 1
CC(=O)O[C@]1(C(C)=O)CC[C@H]2[C@@H]3CCC4=CC(=O)CCC4=C3[C@@H](c3ccc(N(C)C)cc3)C[C@@]21C [ULIPRISTAL ACETATE] | 0.78 | 0.96 | 0.18 | 0.99 | 0.94 | 0.78
Cc1ncsc1-c1ccc([C@H](C)NC(=O)[C@@H]2C[C@@H](O)CN2C(=O)[C@@H](NC(=O)COCCCOCCNC(=O)C[C@@H]2N=C(c3ccc(Cl)cc3)c3c(sc(C)c3C)-n3c(C)nnc32)C(C)(C)C)cc1 | 0.46 | 0.43 | -0.26 | -0.44 | -0.38 | 0.03
Cc1ncsc1-c1ccc(CNC(=O)[C@@H]2C[C@@H](O)CN2C(=O)[C@@H](NC(=O)COCCOCCOc2ccc(-c3ccc4ncnc(Nc5ccc(OCc6cccc(F)c6)c(Cl)c5)c4c3)cc2)C(C)(C)C)cc1 | 1 | – | 1 | 0.62 | 1 | 0.6
CC(=O)Nc1ccc(C(=O)Nc2ccc(F)cc2N)cc1 | 0.67 | 1 | 1 | – | 1 | –
COc1ccc2nc3[nH]nc(C)c3c(NCCOCCO)c2c1 | 0.57 | 0.77 | 0.52 | 0.43 | 0.89 | 1
CCC(CC)(NC(=O)C(C)C)C(=O)N[C@@H](CCCNC(=N)N)C(=O)NC1(C(=O)NC(c2ccc(F)cc2)c2ccc(F)cc2)CCCC1 | 0.95 | 1 | 0.56 | -0.56 | 1 | 0.97
O=CC1CCCN1C(=O)C1CCCN1C(=O)OCc1ccccc1 (stereo not drawn) (Cbz-Pro-Pro-aldehyde; configuration not given here) | 0.88 | 0.71 | 0.22 | 0.25 | 0.37 | 0.84
O=C(c1ccc2[nH]ccc2c1)N1CCN(S(=O)(=O)c2ccc3[nH]c(=O)oc3c2)CC1 | 0.91 | 1 | 0.24 | 1 | 0.5 | 0.82
CNC(=O)Cn1cc(-c2ccc3c(c2)[C@H](F)C[C@]32NC(=O)N(CC(=O)N(Cc3ccc(F)cc3)[C@@H](C)C(F)(F)F)C2=O)cn1 | -0.53 | 0.24 | 0.7 | -0.43 | -0.12 | 0.63
CC(=O)N[C@@H](C)C(=O)N[C@@H](CCC(=O)O)C(=O)N[C@H](C(=O)N[C@@H](C=O)CC(=O)O)C(C)C (Ac-AEV[dD]-aldehyde) | 0.78 | 1 | 0.31 | 0.14 | 0.88 | 0.76
COc1ccc2c(c1)OC(C)(C)C(c1ccccc1)C2c1ccc(OCCN2CCCC2)cc1 (configuration not stated) [ORMELOXIFENE] | 0.93 | 0.92 | 1 | 0.9 | 1 | 0.75
CCN(CCN(C)C)C(=O)CNCc1cc(C(N)=O)ccn1.Cl.O | 0.74 | 0.94 | 0.65 | 0.4 | 0.89 | 0.8
